# Measurements published in patent US10682409B2, “Therapeutic treatment” (priority 2012, dated 2020).
# Experiment: Examples 3-11: weight and height (velocity, percentile curve, course) of ADHD Patients A-H
# Type: in vivo, human
# Protocol: In an embodiment, a therapeutically effective amount of a therapeutic compound disclosed herein increases the weight or height of an individual is determined by an increase in the individual's weight or height velocity as compared to an individual nor receiving a therapeutic compound for appetite reduction. In an embodiment, weight and/or height velocity can be calculated by taking measurements of height and/or weight of an individual over a period of time and measuring an increase or decrease in an individual's height and/or weight over the period of time. In an embodiment, weight velocity is calculated by taking three time points, time 0 upon initiation of medication to treat ADHD, time 1 addition of an appetite stimulant, time 2 the last data point after initiation of combination treatment. In an embodiment, a formula to calculate weight and height velocity for stimulant alone is (weightT1−weight T0)/days from Time 0 to time 1. In an embodiment, a formula to calculate weight velocity for combination treatment is (weightT2−weight T1)/days from time 1 to time 2. In an embodiment, to evaluate whether weight velocity increased after addition of an appetite stimulant, the weight velocity of time 0 to time 1 is compared to the weight velocity from time 1 to time 2. In an embodiment, height velocity is calculated by taking three time points, time 0 upon initiation of medication to treat ADHD, time 1 addition of an appetite stimulant, time 2 the last data point after initiation of combination treatment. The formula to calculate height velocity for stimulant alone is (weightT1−weight T0)/days from Time 0 to time 1. The formula to calculate height velocity for combination treatment is (weightT2−weight T1)/days from time 1 to time 2. In an embodiment, to evaluate whether height velocity increased after addition of an appetite stimulant, the height velocity of time 0 to time 1 is compared to the height velocity from time 1 to time 2.
# Eight patients, identified as patients A-H, that came in suffering from ADHD were treated for ADHD. […] Each patient was then prescribed an appetite simulant to be taken along with the amphetamine or methylphenidate. The patients' weight, height and attentiveness were then followed during the course of treatment.
# The age range of the patients was from 6-15 years of age, with a mean age at the start of treatment for ADHD of 8.4 years of age. The mean age at the start of the combination treatment wherein the patient was administered an amphetamine or methylphenidate and an appetite stimulant was 10.3 years of age. The mean treatment period for the eight patients was 1,108 days with a mean of 2.55 ADHD medication changes during the treatment period. Attentiveness in the eight patients was measured using CGI-S and CGI-I. Patients weight and height velocity were measured to identify a difference in weight and height gain prior to and after addition of an appetite stimulant to the treatment for ADHD. Weight velocity was calculated by taking three time points, time 0 upon initiation of medication to treat ADHD, time 1 addition of an appetite stimulant, time 2 the last data point after initiation of combination treatment. The formula to calculate weight velocity for stimulant alone is (weightT1−weight T0)/days from Time 0 to time 1. The formula to calculate weight velocity for combination treatment is (weightT2−weight T1)/days from time 1 to time 2.
# [1] = Patient A, Periactin 4 mg b.i.d. added to Concerta from day 661, FIG. 4
# [2] = Patient G, Focalin XR 15 mg and Periactin 4 mg b.i.d. from day 546, FIG. 16
compound,measurement,setting,value
"CN1CCC(=C2c3ccccc3C=Cc3ccccc32)CC1.Cl [Periactin, 4-(5H-dibenzo[a,d]cyclohepten-5-ylidene)-1-methylpiperidine hydrochloride]",height course,[1],increase in height began to accelerate
same,weight course,[1],began to gain weight
same,weight course,"Patient B, Focalin XR 15 mg and Periactin 4 mg b.i.d. from day 865, FIG. 6",began to gain weight
same,weight course,"Patient B, Focalin XR 30 mg with Periactin, FIG. 6",continued to increase
same,weight course,"Patient C, Concerta 36 mg and Periactin 4 mg b.i.d. from day 350, FIG. 8",began to gain weight
same,weight course,"Patient D, Concerta 18 mg and Periactin 2 mg in the morning from day 23, FIG. 10",began to gain weight at an accelerated pace
same,weight course,"Patient D, Concerta increased to 27 mg with Periactin",only a slight decrease in the ability of Patient D to continue to gain weight
same,height course,"Patient D, combination of Concerta and Periactin, lagged initiation, FIG. 10",increased the growth rate
same,weight course,"Patient E, Focalin XR 20 mg and Periactin 4 mg in the morning, FIG. 12",began to gain weight at an accelerated pace
same,pace of weight gain,"Patient E, Periactin administered b.i.d. from day 836 with Focalin XR",increased
same,weight course,"Patient F, Daytrana patch 30 mg and Periactin 2 mg b.i.d. from day 1547, FIG. 14",began to gain weight at an accelerated pace
same,pace of weight gain,"Patient F, Periactin increased to 4 mg b.i.d. on day 1950 with Daytrana patch",increased
same,height course,[2],began to gain height at an accelerated pace
same,weight course,[2],continued to gain weight at a good pace
same,weight course,"Patient H, Vvyanase 40 mg and Periactin 2 mg b.i.d. from day 109, FIG. 18",began to gain weight
same,appetite when the dose of the ADHD drug was increased,"individual patient of the example (B, D, E, F) on Periactin",without a concomitant loss of appetite
